For 20 compounds, MIC results are on record in patent US5185330A, “Penam derivatives and salts thereof, and antibacterial agent comprising the same” (Toyama Chemical Co., Ltd., priority 1989, dated 1993).

In one assay the test system is S. marcescens W-8. Kind of assay: Antibacterial activity (MIC, agar dilution) against S. marcescens W-8*. The class given is cell-based. The conditions noted are these: Serratia marcescens. The protocol:
(§1) According to Chemotherapy, vol. 29, No. 1, pp. 76-79 (1981), bacterium was cultured in peptone broth manufactured by Eiken Kagaku K.K. at 37° C. for 20 hours to prepare a bacterial solution of 10^8 cells/ml, and one loopful of the bacterial solution was inoculated into Heart Infusion agar medium (manufactured by Eiken Kagaku K.K.) containing a drug, cultured at 37° C. for 20 hours, after which growth of bacterium was observed. The minimum concentration at which the growth of bacterium was prevented was indicated as MIC (μg/ml).
(§2) *means that β-lactamaseproducing bacteria.

For a further assay, the system named is E. coli TK-3. Description: Antibacterial activity (MIC, agar dilution) against E. coli TK-3*. The class given is cell-based. The conditions noted are these: Escherichia coli. The protocol:
as §1, §2
A general note: Agar dilution tests growth on a series of plates holding different concentrations.

[1] abbreviates: W8, S. marcescens W-8* (β-lactamase-producing bacteria), Heart Infusion agar, 37° C., 20 hours, one loopful of 10^8 cells/ml, read-out: MIC.
Setting [2] is: TK3, E. coli TK-3* (β-lactamase-producing bacteria), Heart Infusion agar, 37° C., 20 hours, one loopful of 10^8 cells/ml, read-out: MIC.

Values after ≈ are worked out from the molar mass of the structure shown. Where a name gives a salt, the structure may show the parent alone. Read-outs that look alike come from different tables or passages of the source.

As for `CCN1CCN(C(=O)N[C@@H](C(=O)N[C@@H]2C(=O)N3C[C@@](C(=O)O)(N4CCN(C)C4=O)S[C@H]23)c2ccccc2)C(=O)C1=O` [compound 51, Sodium salt of (3R,5R,6R)3-carboxy-6-[D-α-(4-ethyl-2,3-dioxo-1-piperazinecarboxamio)-α-phenylacetamido]-3-(3-methyl-2-oxoimidazolidin-1-yl)-7-oxo-4-tha-1-azabicyclo[3.2.0]heptane, reference compound], the MIC with S. marcescens W-8 (setting [1]) and with E. coli TK-3 (setting [2]) was more than 200 µg/mL throughout.
As for `NC(=O)C(=O)NN1CCN([C@]2(C(=O)O)CN3C(=O)[C@@H](NC(=O)C(C(=O)O)c4ccccc4)[C@H]3S2)C1=O` (stereo partly shown) [compound 8], the MIC (as a rule, the least concentration at which growth counts as inhibited) with S. marcescens W-8 (setting [1]) came out at 1.56 µg/mL (≈ 3 µM); with E. coli TK-3 (TK3, 20 h), 3.13 µg/mL (≈ 6.01 µM).
Take `NC(=O)NN1CCN([C@]2(C(=O)O)CN3C(=O)[C@@H](NC(=O)C(c4ccc(N)cc4)S(=O)(=O)O)[C@H]3S2)C1=O` (stereo partly shown) [compound 30]: the MIC in the assay on S. marcescens W-8 (setting [1]) came out at 1.56 µg/mL (≈ 2.87 µM); in the assay on E. coli TK-3 (setting [2]) it was 6.25 µg/mL (≈ 11.5 µM).
Turning to `O=C(O)C(C(=O)N[C@@H]1C(=O)N2C[C@@](C(=O)O)(N3CCN(N=CC=CCS(=O)(=O)O)C3=O)S[C@H]12)c1ccccc1` (stereo partly shown) [compound 12], the figures for the MIC with S. marcescens W-8 (setting [1]) and with E. coli TK-3 (setting [2]) were 0.1 µg/mL (≈ 0.172 µM) and 0.78 µg/mL (≈ 1.34 µM), respectively.
Take `Cn1cc(C=NN2CCN([C@]3(C(=O)O)CN4C(=O)[C@@H](NC(=O)C(C(=O)O)c5ccccc5)[C@H]4S3)C2=O)nn1` (stereo partly shown) [compound 46]: the MIC with S. marcescens W-8 (setting [1]) was determined as 6.25 µg/mL (≈ 11.5 µM); in the assay on E. coli TK-3 (setting [2]), 12.5 µg/mL (≈ 23 µM).
As to `NC(=O)NN1CCN([C@]2(C(=O)O)CN3C(=O)[C@@H](NC(=O)[C@@H](c4ccc(O)c(F)c4)S(=O)(=O)O)[C@H]3S2)C1=O` [compound 39], the MIC against S. marcescens W-8 (W8, 20 h) turned out to be 0.78 µg/mL (≈ 1.39 µM); in the assay with E. coli TK-3 (TK3, 20 h), 3.13 µg/mL (≈ 5.56 µM).
With `CSC(=NN1CCN([C@]2(C(=O)O)CN3C(=O)[C@@H](NC(=O)C(C(=O)O)c4ccccc4)[C@H]3S2)C1=O)SC` (stereo partly shown) [compound 6], the MIC in the assay with S. marcescens W-8 (setting [1]) was found to be 1.56 µg/mL (≈ 2.82 µM); in the assay on E. coli TK-3 (TK3, 20 h), 3.13 µg/mL (≈ 5.65 µM).
Turning to `NC(=O)NN1CCN([C@]2(C(=O)O)CN3C(=O)[C@@H](NC(=O)[C@@H](c4ccc(N)cc4Cl)S(=O)(=O)O)[C@H]3S2)C1=O` [compound 35], the MIC turned out to be 0.78 µg/mL (≈ 1.35 µM) with S. marcescens W-8 (W8, 20 h) and 1.56 µg/mL (≈ 2.7 µM) in the assay with E. coli TK-3 (setting [2]).
For `CC(=O)Oc1ccc(C(C(=O)N[C@@H]2C(=O)N3C[C@@](C(=O)O)(N4CCN(NC(N)=O)C4=O)S[C@H]23)S(=O)(=O)O)cc1` (stereo partly shown) [compound 29], the MIC in the assay with S. marcescens W-8 (setting [1]) was found to be 3.13 µg/mL (≈ 5.34 µM); in the assay with E. coli TK-3 (setting [2]), 6.25 µg/mL (≈ 10.7 µM).
`C=CC=NN1CCN([C@]2(C(=O)O)CN3C(=O)[C@@H](NC(=O)C(c4cc(O)c(O)cc4Cl)S(=O)(=O)O)[C@H]3S2)C1=O` (stereo partly shown) [compound 49]: the MIC against S. marcescens W-8 (W8, 20 h) was not above 0.05 µg/mL; against E. coli TK-3 (TK3, 20 h) it was not above 0.05 µg/mL.
Take `NC(=O)NN1CCN([C@]2(C(=O)O)CN3C(=O)[C@@H](NC(=O)C(C(=O)O)c4ccc(O)c(O)c4)[C@H]3S2)C1=O` (stereo partly shown) [compound 24]: the MIC was found to be 12.5 µg/mL (≈ 23.8 µM) in the assay with S. marcescens W-8 (setting [1]) and 25 µg/mL (≈ 47.7 µM) in the assay with E. coli TK-3 (setting [2]).
In the case of `O=CNN1CCN([C@]2(C(=O)O)CN3C(=O)[C@@H](NC(=O)C(C(=O)O)c4ccccc4)[C@H]3S2)C1=O` (stereo partly shown) [compound 7], the MIC in the assay with S. marcescens W-8 (setting [1]) is 6.25 µg/mL (≈ 13.1 µM); in the assay on E. coli TK-3 (setting [2]) it was 12.5 µg/mL (≈ 26.2 µM).
Consider `C=CC(=O)NN1CCN([C@]2(C(=O)O)CN3C(=O)[C@@H](NC(=O)C(C(=O)O)c4ccc(O)cc4)[C@H]3S2)C1=O` (stereo partly shown) [compound 45], for which the MIC in the assay on S. marcescens W-8 (W8, 20 h) turned out to be 3.13 µg/mL (≈ 6.03 µM); against E. coli TK-3 (TK3, 20 h) it was 3.13 µg/mL (≈ 6.03 µM).
As for `O=C(O)C(C(=O)N[C@@H]1C(=O)N2C[C@@](C(=O)O)(N3CCN(N=C4C=CCC4)C3=O)S[C@H]12)c1ccccc1` (stereo partly shown) [compound 50], the minimum inhibitory concentration (MIC) is 0.1 µg/mL (≈ 0.195 µM) with S. marcescens W-8 (setting [1]) and 0.39 µg/mL (≈ 0.759 µM) against E. coli TK-3 (TK3, 20 h).
As to `O=C(O)C(C(=O)N[C@@H]1C(=O)N2C[C@@](C(=O)O)(N3CCN(N=C4SCCS4)C3=O)S[C@H]12)c1ccccc1` (stereo partly shown) [compound 1], the MIC in the assay with S. marcescens W-8 (setting [1]) came out at 0.1 µg/mL (≈ 0.181 µM); in the assay on E. coli TK-3 (TK3, 20 h), 0.39 µg/mL (≈ 0.707 µM).
`CC(=O)Oc1cc(Cl)c([C@H](C(=O)N[C@@H]2C(=O)N3C[C@@](C(=O)O)(N4CCN(N=CC=NNC(N)=O)C4=O)S[C@H]23)S(=O)(=O)O)cc1OC(C)=O` [compound 34]: the MIC in the assay with S. marcescens W-8 (W8, 20 h) was determined as 0.39 µg/mL (≈ 0.532 µM); in the assay on E. coli TK-3 (setting [2]) it was 0.2 µg/mL (≈ 0.273 µM).
Turning to `NC(=O)NN=CC=NN1CCN([C@]2(C(=O)O)CN3C(=O)[C@@H](NC(=O)[C@@H](c4cc(O)c(O)cc4Cl)S(=O)(=O)O)[C@H]3S2)C1=O` [compound 43], the MIC in the assay on S. marcescens W-8 (setting [1]) and in the assay on E. coli TK-3 (setting [2]) was 0.2 µg/mL (≈ 0.308 µM) each time.
As to `O=C(O)C(C(=O)N[C@@H]1C(=O)N2C[C@@](C(=O)O)(N3CCN(N=Cc4ccco4)C3=O)S[C@H]12)c1ccccc1` (stereo partly shown) [compound 2], the MIC in the assay on S. marcescens W-8 (setting [1]) and in the assay with E. coli TK-3 (setting [2]) was 0.39 µg/mL (≈ 0.739 µM) each time.
On to `C#CC=NN1CCN([C@]2(C(=O)O)CN3C(=O)[C@@H](NC(=O)C(C(=O)O)c4ccc(O)cc4)[C@H]3S2)C1=O` (stereo partly shown) [compound 19], for which the MIC against S. marcescens W-8 (W8, 20 h) was not above 0.05 µg/mL; against E. coli TK-3 (TK3, 20 h), not above 0.05 µg/mL.
Consider `NC(=O)Nc1ccc([C@H](C(=O)N[C@@H]2C(=O)N3C[C@@](C(=O)O)(N4CCN(NC(N)=O)C4=O)S[C@H]23)S(=O)(=O)O)c(Cl)c1` [compound 36], for which the MIC in the assay with S. marcescens W-8 (setting [1]) is 1.56 µg/mL (≈ 2.51 µM); with E. coli TK-3 (setting [2]) it was 12.5 µg/mL (≈ 20.1 µM).
